From PMC5836741 (Journal of medicinal chemistry, 2017)

Assays:
[1] = target: T1, M2R (Homo sapiens, UniProt P08172); assay: Whole cell radioligand binding, CHO cells, M2R; details: M2 vs M1
T1 sequence (P08172 1-466): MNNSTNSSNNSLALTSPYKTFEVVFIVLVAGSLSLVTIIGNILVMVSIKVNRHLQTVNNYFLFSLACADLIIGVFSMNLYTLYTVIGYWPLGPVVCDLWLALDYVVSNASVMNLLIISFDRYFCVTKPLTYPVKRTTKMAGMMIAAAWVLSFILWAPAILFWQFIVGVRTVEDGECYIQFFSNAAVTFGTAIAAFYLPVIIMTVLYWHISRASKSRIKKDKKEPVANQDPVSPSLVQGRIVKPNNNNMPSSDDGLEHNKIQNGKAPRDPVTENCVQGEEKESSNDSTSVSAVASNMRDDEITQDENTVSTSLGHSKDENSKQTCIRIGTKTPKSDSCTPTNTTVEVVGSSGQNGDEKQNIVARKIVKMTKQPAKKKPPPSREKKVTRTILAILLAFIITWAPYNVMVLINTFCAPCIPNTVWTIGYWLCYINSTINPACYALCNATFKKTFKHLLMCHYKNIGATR

[2] = target: T1, M2R; assay: β-Arrestin recruitment assay, HEK cells, M2-TEV-tTA; type: cell-based; details: versus acetylcholine as reference, against the cAMP assay
[3] = target: hM3 mAChR (Homo sapiens, UniProt P20309); assay: IP-One accumulation assay, CHO cells, M3R; type: cell-based; details: read-out: IP accumulation Emax M3R
[4] = target: M3R (Homo sapiens, UniProt P20309); assay: ERK1/2 phosphorylation; details: CHO, read-out: ERK1/2 phosphorylation Emax M3R
Chain of M3R (P20309 whole entry): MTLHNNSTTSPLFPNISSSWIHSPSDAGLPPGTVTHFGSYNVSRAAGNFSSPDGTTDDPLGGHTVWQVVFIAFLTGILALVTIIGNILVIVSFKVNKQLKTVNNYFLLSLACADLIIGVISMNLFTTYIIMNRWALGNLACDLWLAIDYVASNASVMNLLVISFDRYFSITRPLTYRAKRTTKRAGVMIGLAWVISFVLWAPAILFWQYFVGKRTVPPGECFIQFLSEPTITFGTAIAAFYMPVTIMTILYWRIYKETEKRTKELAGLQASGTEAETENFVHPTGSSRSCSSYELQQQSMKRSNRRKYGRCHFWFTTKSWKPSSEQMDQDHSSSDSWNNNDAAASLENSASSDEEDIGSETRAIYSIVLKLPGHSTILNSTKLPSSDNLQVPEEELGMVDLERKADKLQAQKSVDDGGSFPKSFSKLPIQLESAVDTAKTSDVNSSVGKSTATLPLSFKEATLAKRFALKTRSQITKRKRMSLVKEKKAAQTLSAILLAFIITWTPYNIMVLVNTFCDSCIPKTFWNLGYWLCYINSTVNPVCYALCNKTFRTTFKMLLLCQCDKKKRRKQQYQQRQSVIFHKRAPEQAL

Chain of hM3 mAChR (P20309 whole entry): as above

| SMILES | selectivity over M1 receptor [1] [fold] | bias toward arrestin [2] [fold] | Emax [3] [%] | Emax [4] [%] |
| --- | --- | --- | --- | --- |
| C[N+](C)(C)CCc1ccc2c(c1)OCC2.O=C[O-] [Compound 28] | 4 | 20 |  |  |
| CC(=O)OCC[N+](C)(C)C [acetylcholine] |  |  | 100 | 100 |
